Assay results: patent publication US20250188044A1 (HARBIN MEDISAN PHARMACEUTICAL CO., LTD., priority 2021, published 2025)
“Also recorded” adds a separate entry of the source.

Key:
[1] = Metabolic stability in human liver microsomes; format: in vitro ADME
Method: A 500 μM solution of the compound in acetonitrile was prepared and diluted to obtain a 1.5 μM drug working solution with a 0.1 M potassium phosphate solution. The drug working solution was co-incubated with a human liver microsome working solution at a final concentration of 0.75 mg/mL and an NADPH solution (final concentration: 550 μM), and the incubation was terminated by adding an acetonitrile solution at 0 min, 15 min, 30 min, 45 min, and 60 min. The residual amount of the compound that remained in the system at each time point was detected by using LC/MS. The absolute value k of the slope was determined by plotting the natural logarithm of the percentage of the residual amount of the compound with the time, and the calculation was performed according to the formula: T1/2 (half-life)=ln2/k=0.693/k.

[2] = tested on: PPARα/δ downstream target gene; settings: mice, 10 mg/kg intragastric, four consecutive days (FIG. 15)
[3] = tested on: nuclear receptors other than PPAR (RARα, RARγ, RARβ, FXR, RXRα, RXRγ, RXRβ, VDR, LXRα, LXRβ, THβ, PXR, CAR); assay: Nuclear receptor selectivity, Gal4-LBD reporter gene assays in Cos-7 cells; format: cell-based, human; settings: 1 μM, relative agonistic rate (FIG. 16)
[4] = tested on: NASH model mice; assay: CDAA-induced NASH mouse model; format: in vivo, C57 mice
[5] = Pharmacokinetic evaluation in rats; format: in vivo, SD rats
Method: Animals: 6 male SD rats, SPF grade, sourced from the animal repository of Shanghai Medicilon research institution.
The dose in the oral administration group was 10 mpk, and the dose in the intravenous injection group was 2 mpk.
All samples were centrifuged at 18,000 g for 7 min in a low-temperature centrifuge, and plasma was isolated. The content of the compound in the plasma was determined by LC-MS/MS-18, and relevant pharmacokinetic parameters were calculated from the plasma concentration data at different time points.

[6] = tested on: liver fibrosis model mice; assay: Carbon tetrachloride-induced liver fibrosis mouse model; format: in vivo, C57 mice
Method: Animals: 60 male C57 mice, SPF grade, 8 weeks old, weighing about 20 g, purchased from Beijing Vital River Laboratory Animal Technology Co., Ltd. All animals were kept on a 12-h alternating circadian rhythm and were fed ad libitum.
Reagent: positive drug IVA337 (Pan-PPAR agonist, currently in an anti-NASH phase II clinical trial), which was prepared according to the method in the literature (J. Med. Chem., 2018, 61, 2246); carbon tetrachloride (purchased from Shanghai Aladdin Biochemical Technology Co., Ltd.), and sunflower seed oil (purchased from Shanghai Yuanye Biotech Co., Ltd.).
. Mice were given food and water normally and subjected to modeling for 3 weeks. The model group and the administration groups were each injected twice a week with a 25% CCl4 oil solution at a dose of 2 mL/kg, and the control group was injected with an oil solvent at the same volume.
. The administration was performed for 3 weeks, and the mice were given food and water normally. The mice in each group were weighed daily, and their body weight, hair, feces, and activity were carefully observed and recorded.
At 30 h after the sixth injection of CCl4, the mice were dissected for the samples. Blood was taken from the orbit, and then the liver was taken after the mice were sacrificed. The right lobular tissue of liver was fixed with 4% paraformaldehyde and used for HE staining of sections.
The pretreated tissues were sent to ServiceBio Biotechnology Co., Ltd. to make HE stained sections and Sirius red stained sections.
The liver tissue stored at −80° C. was taken out and placed in liquid nitrogen, about 10 mg of liver tissue was rapidly cut off, homogenized with a homogenizer after about 500 μL of precooled tissue lysis buffer was added, and then lysed on ice for 30 min. The lysate was centrifuged at 12,000 rpm for 15 min at 4° C., and 170 μL of supernatant was added to a clean EP tube, from which 10 μL of supernatant was taken for BCA protein quantification. 40 μL of 5*loading buffer was added to the rest of protein supernatant for boiling for denaturation, followed by SDS-PAGE electrophoresis, and the protein was transferred onto a PVDF membrane for incubation and elution of related antibodies. Finally, imaging analysis was performed by using a chemiluminescence apparatus.
The liver tissue stored at −80° C. was taken out and placed in liquid nitrogen, about 200 mg of the liver tissue was rapidly cut off, and hydroxyproline in the liver tissue was detected according to the method in the product instructions (Beijing Solarbio Science & Technology Co., Ltd., BC0255).

[7] = tested on: HepG2 cells; assay: Lipid metabolism-associated gene expression of HepG2 cells (qPCR); format: cell-based, human; settings: 8 nM, nM, and 200 nM, 12 h, vs. blank control (FIGS. 1 and 2)
Method: HepG2 cells (human hepatoma cells) were cultured in a 6-well cell culture plate and subjected to adherent culture overnight. […] The old medium was discarded and replaced with drug-containing medium of different concentrations (complete medium without the compound for the blank control group). After dosing, the cells were incubated for 12 h. The medium was discarded and total RNA was extracted by the phenol-chloroform method. After reverse transcription, the real-time quantitative fluorescent PCR experiment (RNA extraction, reverse transcription, quantitative PCR reagents were all purchased from Nanjing Vazyme Biotech Co., Ltd.) was performed using ACTB as an internal reference, and the expression of PDK4, ACADVL, and CPT1A, which are important genes in oxidative metabolism of lipids, was detected according to the steps in the product instructions (the primer sequences are shown in Table 7). […] Some other compounds of the present invention also have similar activity.

[8] = tested on: nonalcoholic steatohepatitis (NASH); settings: NCT02704403; cited from earlier work

SMILES: Cc1cc(Cn2ncn(-c3ccc(OC(F)(F)F)cc3)c2=O)cc(C)c1OC(C)(C)C(=O)O [Compound 61, 2-(2,6-Dimethyl-4-((5-oxo-4-(4-(trifluoromethoxy)phenyl)-4,5-dihydro-1H-1,2,4-triazo 1-1-yl)methyl)phenoxy)-2-methylpropionic acid]
- metabolic stability in human liver microsomes (in words) ([1]; human liver microsomes): very good metabolic stability in human liver microsomes
- half-life ([1]; human liver microsomes 0.75 mg/mL, NADPH, 0-60 min): > 120 min
- target genes significantly upregulated in the skeletal muscle [2]: 16
- agonistic effect on nuclear receptors other than PPAR [3]: no significant agonistic effect on nuclear receptors other than PPAR
- anti-NASH efficacy compared with GFT505 and IVA337 at the same dose ([4]; NASH model mice, 10 mg/kg intragastric daily, 6 weeks, 10 mg/kg): stronger liver enzyme-lowering effect than GFT505 and IVA337 at the same dose; also recorded: stronger effect in resisting liver inflammation than GFT505 and IVA337; also recorded: stronger effect in resisting liver fibrosis than GFT505 and IVA337; also recorded: better effect than GFT505 and IVA337 at the same dose; also recorded: better efficacy than positive control drugs GFT505 and IVA337 at the same dose; also recorded: better anti-NASH efficacy than clinically investigational PPAR agonists GFT505 and IVA337 at the same dose
- liver mRNA expression levels of Tnf, IIIb, Ccl4, and Adgre1 ([4]; NASH model mice, 3, 10, 30 mg/kg intragastric daily, 6 weeks (FIG. 6)): inhibit the increase of mRNA expression levels of Tnf, IIIb, Ccl4, and Adgre1 due to modeling in a dose-dependent manner
- liver mRNA expression levels of Acta2, Tgfb1, Collal, and Col3a1 ([4]; NASH model mice, 3, 10, 30 mg/kg intragastric daily, 6 weeks (FIG. 7)): significantly inhibit the increase of mRNA expression levels of Acta2, Tgfb1, Collal, and Col3a1 due to modeling
- levels of ALT and AST in serum ([4]; NASH model mice, 3, 10, 30 mg/kg intragastric daily, 6 weeks (FIGS. 4 and 5)): down-regulate the levels of ALT and AST in serum of NASH model mice in a dose-dependent manner
- HE staining: infiltration of inflammatory cells in the portal area ([4]; NASH model mice, liver sections (FIG. 8)): reduce the infiltration of inflammatory cells in the portal area due to modeling in a dose-dependent manner
- Sirius red staining: collagen deposition ([4]; NASH model mice, liver sections (FIG. 9)): reduce collagen deposition due to modeling in a dose-dependent manner
- Oil red staining: lipid accumulation ([4]; NASH model mice, liver sections (FIG. 10)): reduce lipid accumulation due to modeling in a dose-dependent manner
- Time-to-peak Tmax ([5]; intravenous injection, 2 mpk): 4.8 ± 0 min
- Bioavailability F ([5]; oral administration, 10 mpk): 86.35%
- Time-to-peak Tmax ([5]; oral administration, 10 mpk): 85.2 ± 60.6 min
- anti-liver fibrosis efficacy compared with IVA337 at the same dose ([6]; CCl4 liver fibrosis model mice, 10 mg/kg intragastric daily, 3 weeks, 10 mg/kg): stronger effect than IVA337 at the same dose; also recorded: better effect than IVA337 at the same dose; also recorded: better efficacy than a positive control drug IVA337 at the same dose
- hepatic hydroxyproline level ([6]; CCl4 liver fibrosis model mice, 3, 10, 30 mg/kg intragastric daily, 3 weeks (FIG. 11)): down-regulate the hepatic hydroxyproline level of liver fibrosis model mice in a dose-dependent manner
- αSMA and Collal protein levels in liver ([6]; CCl4 liver fibrosis model mice, Western blot (FIG. 12)): inhibit the increase of αSMA and Collal protein levels due to modeling in a dose-dependent manner
- HE staining: infiltration of inflammatory cells in the portal area ([6]; CCl4 liver fibrosis model mice, liver sections (FIG. 13)): reduce the infiltration of inflammatory cells in the portal area due to modeling in a dose-dependent manner
- Sirius red staining: collagen deposition ([6]; CCl4 liver fibrosis model mice, liver sections (FIG. 14)): reduce collagen deposition due to modeling in a dose-dependent manner
- expression of PDK4, ACADVL, and CPT1A [7]: improve the expression of PDK4, ACADVL, and CPT1A in a dose-dependent manner with significance

SMILES: CSc1ccc(C(=O)/C=C/c2cc(C)c(OC(C)(C)C(=O)O)c(C)c2)cc1 [GFT505, Elafibranor]
- efficacy in anti-NASH phase III clinical trial, interim analysis [8]: substantially ineffective
